In patent US20260193250A1, “TOLL-LIKE RECEPTOR 7 AGONISTS AS IMMUNE-STIMULATORS TO ELICIT THE INNATE ANTITUMOR IMMUNITY” (Merck Patent GmbH, priority 2022, published 2026):

Experiments:
hTLR7 = molecular target: T1, hTLR7 (Homo sapiens, UniProt Q9NYK1); experiment: TLR7 reporter assay in HEK-Blue cells (SEAP, Quanti-Blue); format: cell-based; conditions: 24 hours incubation, SEAP absorbance at 620 nm
T1 construct: host or cells: HEK-Blue hTLR7 (HEK293-derived SEAP reporter cells)
T1 sequence (Q9NYK1 27-1049): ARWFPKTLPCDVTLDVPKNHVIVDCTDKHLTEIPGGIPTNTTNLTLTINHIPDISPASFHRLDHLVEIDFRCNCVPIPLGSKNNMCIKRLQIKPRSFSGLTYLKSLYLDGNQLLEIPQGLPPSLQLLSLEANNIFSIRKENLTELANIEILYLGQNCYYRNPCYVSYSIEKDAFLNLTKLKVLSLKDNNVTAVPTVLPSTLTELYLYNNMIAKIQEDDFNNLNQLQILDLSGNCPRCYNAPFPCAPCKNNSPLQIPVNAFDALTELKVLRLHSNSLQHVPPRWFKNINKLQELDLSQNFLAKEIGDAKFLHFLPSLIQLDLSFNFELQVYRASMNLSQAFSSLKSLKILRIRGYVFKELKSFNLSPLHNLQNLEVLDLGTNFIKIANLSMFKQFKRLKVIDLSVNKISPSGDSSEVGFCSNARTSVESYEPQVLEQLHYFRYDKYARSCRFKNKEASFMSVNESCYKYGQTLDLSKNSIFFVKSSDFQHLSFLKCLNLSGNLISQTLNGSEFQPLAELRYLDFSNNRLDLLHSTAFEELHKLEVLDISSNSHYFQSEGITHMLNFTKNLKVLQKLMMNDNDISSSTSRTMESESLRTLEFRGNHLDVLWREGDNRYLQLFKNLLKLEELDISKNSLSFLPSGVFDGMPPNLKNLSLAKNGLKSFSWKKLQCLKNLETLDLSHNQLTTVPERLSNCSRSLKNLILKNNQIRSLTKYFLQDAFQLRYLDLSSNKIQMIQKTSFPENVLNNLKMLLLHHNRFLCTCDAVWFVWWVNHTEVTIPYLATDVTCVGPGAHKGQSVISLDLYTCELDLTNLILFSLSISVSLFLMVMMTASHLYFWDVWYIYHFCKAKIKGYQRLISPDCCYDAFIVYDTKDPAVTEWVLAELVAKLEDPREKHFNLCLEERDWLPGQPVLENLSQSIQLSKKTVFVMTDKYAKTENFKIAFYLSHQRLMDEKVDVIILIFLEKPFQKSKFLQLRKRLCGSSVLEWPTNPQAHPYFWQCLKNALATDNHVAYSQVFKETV
Protocol: (§1) HEK-Blue™ TLR7 and TLR8 cell lines were obtained from InvivoGen (San Diego, CA, USA). HEK-Blue cells were cultured in DMEM medium hi glucose (Gibco-10569010) supplemented with 10% HI-FBS (Aus origin) (Gibco-10100-147), 1% penicillin/streptomycin (Gibco-15140-122-100 ml) as per manufacturer's recommendation. In addition, specific antibiotic mixtures were added to the culture. 100 μg/ml Zeocin (11006-33-0), 10 μg/ml Blasticidin (ant-bl-05), 50 μg/ml Normocin (ANT-NR-1-500 MG) for HEK-Blue™ hTLR7 and 100 μg/ml Zeocin, 30 μg/ml Blasticidin, 50 μg/ml Normocin for HEK-Blue™ hTLR8 cells (all from InvivoGen).
(§2) All the compounds were prepared in 100% DMSO (Sigma-D2650). The compounds were serially diluted in 100% DMSO (3 fold) up to 10 point dose response curve starting with 30 μM; final concentration of DMSO in the plate was 0.3%. Resiquimod and TL8-506 (InvivoGen-tlrl-t18506) were used as controls. 0.3% DMSO and 10 μM Resiquimod were used as min and max respectively, and % activation was calculated using following formula:
(§3) % Activation: {100−(max absorbance−absorbance)/(max absorbance−min absorbance)}×100.
(§4) For stimulation with TLR7/8 agonists, cells were resuspended in complete media and 40 μl of cell suspension (10,000 cells/well) was seeded on day 1 in 384 well assay plate (Thermo Scientific™ Nunc-164688) having pre-dispensed compounds with Echo Liquid handler. The plate was spun at 100 g for 1 min to settle down the cells and incubated at 37° C. with 5% CO2 for 24 hours. For measuring production of SEAP after 24 hrs of incubation, 10 μl of Quanti-Blue™ solution (InvivoGen rep-qbs2) prepared according to manufacturer's instructions was added in dark to the assay plate and incubated at 37° C. with 5% CO2 for 30 min. Post incubation, the absorbance was measured at 620 nm in Tecan spark (Spark control Magellan). EC50 were determined using Graph Pad Prism Statistical software (Version 7.05), with individual data points represent the absorbance values of duplicates.

hTLR8 = molecular target: T2, hTLR8 (Homo sapiens, UniProt Q9NR97); experiment: TLR8 reporter assay in HEK-Blue cells (SEAP, Quanti-Blue); format: cell-based; conditions: 24 hours incubation, SEAP absorbance at 620 nm
T2 construct: host or cells: HEK-Blue hTLR8 (HEK293-derived SEAP reporter cells)
T2 sequence (Q9NR97 27-1041): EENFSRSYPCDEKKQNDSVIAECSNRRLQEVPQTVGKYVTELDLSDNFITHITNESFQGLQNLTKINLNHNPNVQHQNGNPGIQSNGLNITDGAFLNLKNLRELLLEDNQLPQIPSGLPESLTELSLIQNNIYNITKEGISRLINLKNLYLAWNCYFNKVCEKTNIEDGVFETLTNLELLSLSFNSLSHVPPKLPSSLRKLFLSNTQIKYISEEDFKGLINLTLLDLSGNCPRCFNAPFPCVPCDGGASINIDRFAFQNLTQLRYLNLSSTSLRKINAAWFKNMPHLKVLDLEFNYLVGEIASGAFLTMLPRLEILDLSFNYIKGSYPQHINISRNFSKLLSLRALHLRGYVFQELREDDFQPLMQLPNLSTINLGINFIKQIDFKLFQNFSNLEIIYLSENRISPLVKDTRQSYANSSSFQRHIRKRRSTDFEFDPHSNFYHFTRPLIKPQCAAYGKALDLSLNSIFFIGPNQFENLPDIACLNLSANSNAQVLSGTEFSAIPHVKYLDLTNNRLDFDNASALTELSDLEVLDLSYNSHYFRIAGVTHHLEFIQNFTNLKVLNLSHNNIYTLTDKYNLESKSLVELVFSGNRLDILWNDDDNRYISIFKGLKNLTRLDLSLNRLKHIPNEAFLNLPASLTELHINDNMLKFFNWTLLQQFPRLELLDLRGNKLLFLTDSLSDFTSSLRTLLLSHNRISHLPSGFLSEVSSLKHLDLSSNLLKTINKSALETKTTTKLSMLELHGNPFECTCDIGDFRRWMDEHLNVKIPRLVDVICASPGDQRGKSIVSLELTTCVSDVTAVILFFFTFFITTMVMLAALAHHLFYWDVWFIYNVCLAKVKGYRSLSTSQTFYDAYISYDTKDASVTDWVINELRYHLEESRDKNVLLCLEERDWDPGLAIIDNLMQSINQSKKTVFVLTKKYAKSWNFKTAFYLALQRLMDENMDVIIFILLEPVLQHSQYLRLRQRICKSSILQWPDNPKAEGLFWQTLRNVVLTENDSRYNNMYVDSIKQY
Protocol: as §1, §2, §3, §4

CCOCc1nc2c(N)nc3ccccc3c2n1CC(C)(C)OCCN1CCN(C)CC1 [Example 1]
EC50 (hTLR7): < 10 nM
EC50 (hTLR8): 1000 to 10000 nM

CCOCc1nc2c(N)nc3ccccc3c2n1CC(C)(C)OCCCCCCN1CCN(C)CC1 [Example 5]
EC50 (hTLR7): < 10 nM
EC50 (hTLR8): 100 to 1000 nM

CCOCc1nc2c(N)nc3ccccc3c2n1CC(C)(C)OCCCCO [Example 6]
EC50 (hTLR7): 10 to 100 nM
EC50 (hTLR8): 1000 to 10000 nM

CCOCc1nc2c(N)nc3ccccc3c2n1CC(C)(C)OCCCCN1CCN(CCO)CC1 [Example 12]
EC50 (hTLR7): 10 to 100 nM
EC50 (hTLR8): 1000 to 10000 nM

CCOCc1nc2c(N)nc3ccccc3c2n1CC(C)(C)OCCCC(=O)N1CCN(C)CC1 [Example 15]
EC50 (hTLR7): 10 to 100 nM
EC50 (hTLR8): 1000 to 10000 nM

CCOCc1nc2c(N)nc3ccccc3c2n1CC(C)(C)OCCNC(=O)CN1CCN(C)CC1 [Example 16]
EC50 (hTLR7): 100 to 1000 nM
EC50 (hTLR8): 1000 to 10000 nM

CCOCc1nc2c(N)nc3ccccc3c2n1CC(C)(C)OC(=O)CN1CCN(C)CC1 [Example 17]
EC50 (hTLR7): 100 to 1000 nM
EC50 (hTLR8): 100 to 1000 nM

CCOCc1nc2c(N)nc3ccccc3c2n1CC(C)(C)OCCNC(=O)CO [Example 20]
EC50 (hTLR7): > 10000 nM
EC50 (hTLR8): > 10000 nM

CCOCc1nc2c(N)nc3ccccc3c2n1CC(C)(C)OCCNC(=O)C(C)(C)O [Example 21]
EC50 (hTLR7): 100 to 1000 nM
EC50 (hTLR8): > 10000 nM

CCOCc1nc2c(N)nc3ccccc3c2n1CC(C)(C)OCCNC(=O)CC(=O)OC [Example 22]
EC50 (hTLR7): 100 to 1000 nM
EC50 (hTLR8): > 10000 nM

CCOCc1nc2c(N)nc3ccccc3c2n1CC(C)(C)OCCNC(=O)CSC [Example 23]
EC50 (hTLR7): 100 to 1000 nM
EC50 (hTLR8): > 10000 nM

CCOCc1nc2c(N)nc3ccccc3c2n1CC(C)(C)OCCNC(=O)CS(C)(=O)=O [Example 24]
EC50 (hTLR7): 100 to 1000 nM
EC50 (hTLR8): 100 to 1000 nM

CCOCc1nc2c(N)nc3ccccc3c2n1CC(C)(C)OCCNC(=O)CS(=O)(=O)O [Example 25]
EC50 (hTLR7): 1000 to 10000 nM
EC50 (hTLR8): > 10000 nM

CCOCc1nc2c(N)nc3ccccc3c2n1CC(C)(C)OCCCCN1CCN(CCSC)CC1 [Example 26]
EC50 (hTLR7): 100 to 1000 nM
EC50 (hTLR8): 1000 to 10000 nM
